Experimental data published in patent US10538535B2, “Antitumoral compounds” (priority 2017, dated 2020).
Like-named read-outs stand apart in the source and are kept apart here.

Assays:
[1] = test system: A549 cells; test: cells; conditions: Homo sapiens, A549, 72 h
In short: (§1)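 Cells seeded at 5000/well, attached 18 h, then treated 72 h with ten 2/5 serial dilutions (10 to 0.003 μg/mL, 1% final DMSO) in triplicate. Growth measured by SRB staining after glutaraldehyde fixation, with time-zero plate; values from NCI algorithm and four-parameter logistic fit.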

[2] = test system: HT29 cells; test: cells; conditions: Homo sapiens, HT-29, 72 h
In short: as §1

[3] = test system: MDA-MB-231 cells; test: cells; conditions: Homo sapiens, MDA-MB-231, 72 h
In short: as §1

[4] = test system: PSN1 cells; test: cells; conditions: Homo sapiens, PSN1, 72 h
In short: as §1

[5] = test system: MDA-MB-231 tumors
Protocol: (§2) Female athymic nu/nu mice (Harlan Laboratories Models, S. L. Barcelona, Spain or Envigo, Spain) were utilized for all experiments. Animal were housed in individually ventilated cages Sealsafe® Plus, Techniplast S.P.A.), up to ten per cage on a 12-hour light-dark cycle at 21-23° C. and 40-60% humidity. […] Animals were acclimated for at least 5 days prior to tumor implantation with a tumor cell suspension.
MDA-MB-231 cells were maintained in vitro at 37° C. with 5% CO2 in Dulbecco's Modified Eagle's Medium (Sigma-Aldrich, Co). Culture cells were passaged every 3 to 5 days upon reaching confluence.
(§3) Treatment tolerability was assessed by monitoring body weight evolution, clinical signs of systemic toxicity, as well as evidences of local damage in the injection site.
(§4) In xenograft studies with other cell lines: • Tumor volume was calculated using the equation (a·b^2)/2, where a: length (longest diameter) and b: width (shortest diameter) were measured in mm by using digital caliper (Fowler Sylvac, S235PAT).
(§5) Treatments producing >20% lethality and/or 20% net body weight loss were considered toxic.

[6] = test system: H460 tumors
Protocol: as §2
H460 cells were maintained in vitro at 37° C. with 5% CO2 in Dulbecco's Modified Eagle's Medium (Sigma-Aldrich, Co). Culture cells were passaged every 3 to 5 days upon reaching confluence. Each animal was subcutaneously implanted (on the right flank using 26 G needle and a 1 cc syringe) at 4-6 weeks of age with 5×10^6 H460 cells suspended in 0.05 mL of a solution consisting of 50% Matrigel® (Corning Incorporated Life Sciences) and 50% medium without serum or antibiotics.
as §3, §5

[7] = test system: A2780 tumors; conditions: iv Days 0, 7, 14
Protocol: as §2
Culture cells were passaged every 3 to 5 days upon reaching confluence. Each animal was subcutaneously implanted (on the right flank using 26 G needle and a 1 cc syringe) at 4-6 weeks of age with 10×10^6 A2780 cells suspended in 0.05 mL of a solution consisting of 50% Matrigel® (Corning Incorporated Life Sciences) and 50% medium without serum or antibiotics.
as §3, §4, §5

COc1c(C)cc2c(c1O)[C@@H]1[C@@H]3[C@@H]4SC[C@]5(N[C@@H](C)Cc6c5[nH]c5ccccc65)C(=O)OC[C@@H](c5c6c(c(C)c(OC(C)=O)c54)OCO6)N3[C@@H](O)[C@H](C2)N1C [D]
GI50 [1]: 0.0125 µM
CC50 ([1]; read-out: LC50): > 0.13 µM
IC (TGI) ([1]; read-out: TGI): 0.0286 µM
GI50 [2]: 0.0103 µM
CC50 ([2]; read-out: LC50): > 0.13 µM
IC (TGI) ([2]; read-out: TGI): 0.0234 µM
GI50 [3]: 0.00988 µM
CC50 ([3]; read-out: LC50): 0.0533 µM
IC (TGI) ([3]; read-out: TGI): 0.0195 µM
GI50 [4]: 0.0208 µM
CC50 ([4]; read-out: LC50): 0.0247 µM
IC (TGI) ([4]; read-out: TGI): 0.0221 µM
Median Tumor Volume ([5]; Table 22, Day 0, iv Days 0, 7, 14): 129.5 mm^3
Median Tumor Volume ([5]; Table 22, Day 7, iv Days 0, 7, 14): 147.9 mm^3
Median Tumor Volume ([5]; Table 22, Day 14, iv Days 0, 7, 14): 186.4 mm^3
Median Tumor Volume ([5]; Table 22, Day 21, iv Days 0, 7, 14): 136.5 mm^3
Median Tumor Volume ([5]; Table 22, Day 28, iv Days 0, 7, 14): 290.7 mm^3
Median Tumor Volume ([5]; Table 22, Day 35, iv Days 0, 7, 14): 431.7 mm^3
Median Tumor Volume ([5]; Table 22, Day 42, iv Days 0, 7, 14): 770.1 mm^3
Median Tumor Volume ([5]; Table 22, Day 49, iv Days 0, 7, 14): 970.0 mm^3
Median Tumor Volume ([5]; Table 22, Day 56, iv Days 0, 7, 14): 1461.9 mm^3
Median Tumor Volume ([5]; Table 22, Day 63, iv Days 0, 7, 14): 1526.4 mm^3
Median Tumor Volume ([5]; iv, 0.5 mg/kg, 0 h): 149.6 mm^3
Median Tumor Volume ([5]; iv, 0.5 mg/kg, 48 h): 217.2 mm^3
Median Tumor Volume ([5]; iv, 0.5 mg/kg, 120 h): 284.5 mm^3
Median Tumor Volume ([5]; iv, 0.5 mg/kg, 168 h): 310.0 mm^3
Median Tumor Volume ([5]; iv, 0.5 mg/kg, 336 h): 237.7 mm^3
Median Tumor Volume ([5]; iv, 0.5 mg/kg, 384 h): 261.2 mm^3
Median Tumor Volume ([5]; iv, 0.5 mg/kg, 456 h): 251.3 mm^3
Median Tumor Volume ([5]; iv, 0.5 mg/kg, 504 h): 219.9 mm^3
Median Tumor Volume ([5]; iv, 0.5 mg/kg, 552 h): 221.8 mm^3
Median Tumor Volume ([5]; iv, 0.5 mg/kg, 672 h): 320.3 mm^3
Median Tumor Volume ([5]; iv, 0.5 mg/kg, 720 h): 401.6 mm^3
Median Tumor Volume ([5]; iv, 0.5 mg/kg, 840 h): 629.2 mm^3
Median Tumor Volume ([5]; iv, 0.5 mg/kg, 888 h): 670.7 mm^3
Median Tumor Volume ([5]; iv, 0.5 mg/kg, 960 h): 669.9 mm^3
Median Tumor Volume ([5]; iv, 0.5 mg/kg, 1056 h): 798.1 mm^3
Median Tumor Volume ([5]; iv, 0.5 mg/kg, 1128 h): 857.7 mm^3
Median Tumor Volume ([5]; iv, 0.5 mg/kg, 1176 h): 870.7 mm^3
Median Tumor Volume ([5]; iv, 0.5 mg/kg, 1224 h): 925.8 mm^3
Median Tumor Volume ([5]; iv, 0.5 mg/kg, 1296 h): 1005.4 mm^3
Median Tumor Volume ([5]; iv, 0.5 mg/kg, 1344 h): 1064.2 mm^3
Median Tumor Volume ([5]; iv, 0.5 mg/kg, 1392 h): 1235.6 mm^3
Median Tumor Volume ([5]; iv, 0.5 mg/kg, 1464 h): 1367.8 mm^3
Median Tumor Volume ([5]; iv, 0.5 mg/kg, 1512 h): 1553.7 mm^3
Median Tumor Volume ([6]; Table 24, Day 0, iv Days 0, 7, 14): 203.4 mm^3
Median Tumor Volume ([6]; Table 24, Day 2, iv Days 0, 7, 14): 367.3 mm^3
Median Tumor Volume ([6]; Table 24, Day 7, iv Days 0, 7, 14): 792.0 mm^3
Median Tumor Volume ([6]; Table 24, Day 9, iv Days 0, 7, 14): 854.6 mm^3
Median Tumor Volume ([6]; Table 24, Day 12, iv Days 0, 7, 14): 1026.7 mm^3
Median Tumor Volume ([6]; Table 24, Day 14, iv Days 0, 7, 14): 1175.8 mm^3
Median Tumor Volume ([6]; Table 24, Day 16, iv Days 0, 7, 14): 1322.1 mm^3
Median Tumor Volume ([6]; Table 24, Day 19, iv Days 0, 7, 14): 1581.1 mm^3
Median Tumor Volume ([6]; Table 24, Day 21, iv Days 0, 7, 14): 1789.3 mm^3
Median Tumor Volume ([6]; Table 24, Day 23, iv Days 0, 7, 14): 1966.5 mm^3
Median Tumor Volume ([6]; Table 24, Day 26, iv Days 0, 7, 14): 2080.7 mm^3
Median Tumor Volume ([6]; iv, 0.5 mg/kg, 0 h): 187.2 mm^3
Median Tumor Volume ([6]; iv, 0.5 mg/kg, 48 h): 329.7 mm^3
Median Tumor Volume ([6]; iv, 0.5 mg/kg, 120 h): 559.4 mm^3
Median Tumor Volume ([6]; iv, 0.5 mg/kg, 168 h): 756.5 mm^3
Median Tumor Volume ([6]; iv, 0.5 mg/kg, 336 h): 1626.8 mm^3
Median Tumor Volume ([6]; iv, 0.5 mg/kg, 384 h): 2025.0 mm^3
Median Tumor Volume ([7]; Table 26, Day 0): 190.1 mm^3
Median Tumor Volume ([7]; Table 26, Day 3): 319.6 mm^3
Median Tumor Volume ([7]; Table 26, Day 5): 514.4 mm^3
Median Tumor Volume ([7]; Table 26, Day 7): 897.4 mm^3
Median Tumor Volume ([7]; Table 26, Day 10): 1239.8 mm^3
Median Tumor Volume ([7]; Table 26, Day 12): 1656.2 mm^3
Median Tumor Volume ([7]; Table 26, Day 14): 1951.7 mm^3
Median Tumor Volume ([7]; Table 26, Day 17): 2121.7 mm^3
Median Tumor Volume ([7]; Table 26, Day 19): 2068.6 mm^3
